Assay [1] is described as follows: Cytotoxicity against human PLC/PRF/5 cells. The class given is functional. Conditions: read-out: ED50 (the source's name).
Assay [2] relates to KB. Description: Cytotoxicity against human KB cells. It is filed as functional. Conditions: read-out: ED50 (the source's name).
Assay [3] has as its system Mus musculus. Put plainly: Protective activity against CCL4-induced hepatotoxicity in ICR mouse assessed as SGOT/SGPT levels at 0.1 to 3 mg/kg, ip.

Values after ≈ are worked out from the molar mass of the structure shown. Active and inactive are the calls of the source. The calls are words filed in the database; no cut-off is given here.

In the case of `C[C@@H]1CC[C@]2(O[C@H]3C[C@H]4[C@@H]5CC=C6C[C@@H](O)CC[C@]6(C)[C@H]5CC[C@]4(C)[C@H]3[C@@H]2C)N(C)C1`, the EC50 in assay [1] is 8.02 µg/mL (≈ 18.8 µM); in assay [2] it was 6 µg/mL (≈ 14 µM).
Take `C[C@@H]1CC[C@@]2(NC1)O[C@H]1C[C@H]3[C@@H]4CC=C5C[C@@H](O[C@@H]6O[C@H](CO)[C@@H](O[C@@H]7O[C@@H](C)[C@H](O)[C@@H](O)[C@H]7O)[C@H](O)[C@H]6O)CC[C@]5(C)[C@H]4CC[C@]3(C)[C@H]1[C@@H]2C`: the result in assay [3] was Active.
For `C[C@@H]1CC[C@H]([C@@H](C)C2[C@H](O)C[C@H]3[C@@H]4CC=C5C[C@@H](O[C@@H]6O[C@H](CO)[C@@H](O)[C@H](O)[C@H]6O)CC[C@]5(C)[C@H]4CC[C@]23C)NC1` (some centres undefined), in assay [3], the result was Active.
Consider `C[C@H]1CC[C@H]([C@@H](C)[C@H]2[C@H](O)C[C@H]3[C@@H]4CC=C5C[C@@H](O[C@@H]6O[C@H](CO)[C@@H](O)[C@H](O)[C@H]6O)CC[C@]5(C)[C@H]4CC[C@]23C)NC1` [CAPSICASTRINE], for which, in assay [1], the EC50 stood at 1.78 µg/mL (≈ 3.08 µM).
Regarding `C[C@H]1CC[C@H]([C@@H](C)[C@H]2[C@H](O)C[C@H]3[C@@H]4CC=C5C[C@@H](O)CC[C@]5(C)[C@H]4CC[C@]23C)NC1` [CAPSIMINE], the figures for the EC50 in assay [1] and in assay [2] were 1.97 µg/mL (≈ 4.74 µM) and 1.35 µg/mL (≈ 3.25 µM), respectively. Further, in assay [3], the outcome was Active.
In the case of `C[C@H]1CC=C([C@@H](C)[C@H]2[C@H](O)C[C@H]3[C@@H]4CC=C5C[C@@H](O)CC[C@]5(C)[C@H]4CC[C@]23C)NC1` [ETIOLINE], the figures for the EC50 in assay [1] and in assay [2] were 2.67 µg/mL (≈ 6.45 µM) and 11.2 µg/mL (≈ 27.1 µM), respectively.
Turning to `O=C1C[C@@H](c2ccc(O)cc2)Oc2cc(O)cc(O)c21` [NARINGENIN], the values for the EC50 in assay [1] and in assay [2] were 2.47 µg/mL (≈ 9.07 µM) and 2.71 µg/mL (≈ 9.95 µM), respectively.
`C[C@@H]1CC[C@@]2(NC1)O[C@H]1C[C@H]3[C@@H]4CC=C5C[C@@H](O[C@@H]6O[C@H](CO)[C@H](O)[C@H](O[C@@H]7O[C@H](CO)[C@@H](O)[C@H](O)[C@H]7O)[C@H]6O[C@@H]6O[C@@H](C)[C@H](O)[C@@H](O)[C@H]6O)CC[C@]5(C)[C@H]4CC[C@]3(C)[C@H]1[C@@H]2C` [SOLASONINE]: the EC50 came out at 7.88 µg/mL (≈ 8.91 µM) in assay [1] and 11.4 µg/mL (≈ 12.9 µM) in assay [2].

(Values after ChEMBL document CHEMBL1147329, “Cytotoxic principles and their derivatives of Formosan Solanum plants” (1993).)
